{"source": "patent US12630543B2", "about": "(priority 2019, dated 2026)", "test_system": "rice blast", "type": "cell-based", "conditions": "1,000 μl of 2,000 ppm test solution on oatmeal culture medium; 8 mm rice blast disc; 25° C. for 7 days; elongation length of hyphae vs without treatment", "data": [{"smiles": "COc1nn(-c2ccccn2)c(F)c1C(F)(F)F", "note": "[Example 2, 5-fluoro-3-methoxy-1-(2-pyridyl)-4-trifluoromethylpyrazole]", "values": [{"measurement": "Preventive value", "value": 80}]}]}
